Experimental data taken from US5756491A, “Antiviral cobalt-organic compounds” (priority 1991, dated 1998).

How the values were obtained:
RE strain HSV-1 = assay: HSV-1 recovery from tear film, cornea and trigeminal ganglia of treated rabbits; format: in vivo, NZW rabbit
How it was run: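 NZW rabbits (1.5-2.0 kg) were inoculated bilaterally by intrastromal injection of 10^5 PFU HSV-1. Tear-film swabs on days 0, 3, 5 and 7 PI were cultured on HFF monolayers and scored for CPE. After sacrifice, corneal epithelial/stromal and trigeminal ganglion co-cultures were scored positive or negative for HSV CPE; negative ganglion cultures were blind-passaged twice.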

[1] = test system: human foreskin fibroblast (HFF) cell monolayers; assay: Toxicity effects controls: sham-inoculated compound-treated HFF monolayers; format: cell-based; as to Toxicity effects: key: +: toxic; -: no toxicity; ±: mild toxicity; T: toxicity effects interfered with CPE rating
From the text: (§1) With sufficient stirring, all the compounds completely dissolved.
In the tables, the symbols have the meaning indicated: […]

HFF cells = assay: Cell proliferation assay; format: cell-based, human; settings: rapidly growing cells
HSV-1 McKrae Strain [2] = assay: Intracellular antiviral activity against HSV-1 in HFF monolayers; format: cell-based; settings: for antiviral efficacy (HSV-1 titer): Experiment 7 (Table 18), 24 h PI
Experimental: HSV-1 McKrae Strain was diluted to a final concentration of 10^5 PFU/ml in minimal essential medium (MEM). Hereinafter, this dilution is referred to as the HSV-1 Suspension for convenience.
as §1
HFF cell monolayers were inoculated with the HSV-Suspension prepared as above by absorption for thirty minutes at 37° C. After absorption of the virus, the inoculum was aspirated from the cell monolayers and the HSV-1 infected monolayers were rehydrated with medium containing the appropriate concentration of the solution of the compound by adding 500 microliters of each compound concentration to triplicate HSV-1 infected monolayers. All monolayers were incubated at 37° C. The developing HSV-1 cytopathology was monitored daily for two days by inverted light microscopy and titers were calculated by multiple […] analysis. For the intracellular anti-viral activity, "cell monolayer controls" were obtained using sham inoculated non-treated HFF cell monolayers along with the drug treated monolayers. "Positive controls" were obtained by using HSV-1 inoculated non-CTC compound treated HFF monolayers.

HSV-1 McKrae Strain [3] = assay: Direct virucidal efficacy against HSV-1 on HFF monolayers; format: cell-based; settings: for effective virucidal concentration IC50 / effective virucidal concentration IC90: HSV-1

CC([O-])=CC(C)=NCCN=C(C)C=C(C)[O-].Cc1ncc[nH]1.Cc1ncc[nH]1.[Br-].[Co+3] [Compound 96]
HSV-1 recovery, corneal epithelium (C.E.) (RE strain HSV-1; Example 3 (Table 22)): 50%
HSV-1 recovery, corneal stroma (C.S.) (RE strain HSV-1; Example 3 (Table 22)): 50%
HSV-1 recovery, trigeminal ganglia (T.G.) (RE strain HSV-1; Example 3 (Table 22)): 50%
HSV-1 recovery, tear film (positive samples of total) (RE strain HSV-1; Example 3 (Table 22), day 3 PI): 100%
HSV-1 recovery, tear film (positive samples of total) (RE strain HSV-1; Example 3 (Table 22), day 5 PI): 100%
HSV-1 recovery, tear film (positive samples of total) (RE strain HSV-1; Example 3 (Table 22), day 7 PI): 80%
HSV-1 recovery, tear film (positive samples of total) (RE strain HSV-1; Example 3 (Table 22), day 9 PI): 0%
recovery of HSV-1 in tear film (RE strain HSV-1; Example 4): reduced the recovery of HSV-1 in tear film
HSV-1 recovery, corneal stroma (RE strain HSV-1; Example 5 (Table 23)): 70%
HSV-1 recovery (positive cultures per total) (RE strain HSV-1; Example 5 (Table 23), column 1): 0%
HSV-1 recovery (positive cultures per total) (RE strain HSV-1; Example 5 (Table 23), column 3): 100%
HSV-1 recovery (positive cultures per total) (RE strain HSV-1; Example 5 (Table 23), column 5): 90%
HSV-1 recovery (positive cultures per total) (RE strain HSV-1; Example 5 (Table 23), column 7): 70%
toxicity at 1 mg/ml (comment) [1]: a lack of toxicity
toxicity effects ([1]; Experiment 3 (Table 7), 24 h PI, 0.001 mg/ml): -
toxicity effects ([1]; Experiment 3 (Table 7), 24 h PI, 0.01 mg/ml): -
toxicity effects ([1]; Experiment 3 (Table 7), 24 h PI, 0.1 mg/ml): -
toxicity effects ([1]; Experiment 3 (Table 7), 24 h PI, 1 mg/ml): -
toxicity effects ([1]; Experiment 3 (Table 7), 48 h PI, 0.001 mg/ml): -
toxicity effects ([1]; Experiment 3 (Table 7), 48 h PI, 0.01 mg/ml): -
toxicity effects ([1]; Experiment 3 (Table 7), 48 h PI, 0.1 mg/ml): -
toxicity effects ([1]; Experiment 3 (Table 7), 48 h PI, 1 mg/ml): -
toxicity effects ([1]; Experiment 4 (Table 10), 24 h, 0.001 mg/ml): -
toxicity effects ([1]; Experiment 4 (Table 10), 24 h, 0.01 mg/ml): -
toxicity effects ([1]; Experiment 4 (Table 10), 24 h, 0.5 mg/ml): -
toxicity effects ([1]; Experiment 4 (Table 10), 24 h, 1 mg/ml): -
toxicity effects ([1]; Experiment 4 (Table 10), 48 h, 0.001 mg/ml): -
toxicity effects ([1]; Experiment 4 (Table 10), 48 h, 0.01 mg/ml): -
toxicity effects ([1]; Experiment 4 (Table 10), 48 h, 0.5 mg/ml): -
toxicity effects ([1]; Experiment 5 (Table 13), 24 h, 0.00 mg/ml (so in the source)): -
toxicity effects ([1]; Experiment 5 (Table 13), 24 h, 0.01 mg/ml): -
toxicity effects ([1]; Experiment 5 (Table 13), 24 h, 0.5 mg/ml): -
toxicity effects ([1]; Experiment 5 (Table 13), 48 h, 0.00 mg/ml (so in the source)): -
toxicity effects ([1]; Experiment 5 (Table 13), 48 h, 0.01 mg/ml): -
toxicity effects ([1]; Experiment 5 (Table 13), 48 h, 0.5 mg/ml): -
toxicity effects ([1]; Experiment 5 (Table 13), 48 h, 5 mg/ml): +
toxicity effects ([1]; Experiment 6 (Table 15), 48 h, 0.001 mg/ml): -
toxicity effects ([1]; Experiment 6 (Table 15), 48 h, 0.01 mg/ml): -
toxicity effects ([1]; Experiment 6 (Table 15), 48 h, 1 mg/ml): -
toxicity to HFF monolayers (comment) ([1]; Experiment 6 comment, more pronounced at 0.5 and 0.1 mg/ml, cell rounding, detaching, granularity): toxicity observed
toxicity IC50, cell proliferation (HFF cells): 21.0 MCG/ML
antiviral efficacy (HSV-1 titer) (HSV-1 McKrae Strain [2]; 0.1 mg/ml): 10^2 PFU/ml
antiviral efficacy (HSV-1 titer) (HSV-1 McKrae Strain [2]; 2 mg/ml): 0 PFU/ml
antiviral efficacy (HSV-1 titer) (HSV-1 McKrae Strain [2]; 5 mg/ml): 0 PFU/ml
effective virucidal concentration IC50 (HSV-1 McKrae Strain [2]; Experiment 7 (Table 19), HSV-1): 500 to 1000 µg/mL
virucidal efficacy (HSV-1 titer) (HSV-1 McKrae Strain [3]; Experiment 2 (Table 5), 24 h PI, 0.001 mg/ml): 10^4 PFU/ml
virucidal efficacy (HSV-1 titer) (HSV-1 McKrae Strain [3]; Experiment 2 (Table 5), 24 h PI, 1 mg/ml): 0 PFU/ml
virucidal efficacy (HSV-1 titer) (HSV-1 McKrae Strain [3]; Experiment 2 (Table 5), 48 h PI, 0.01 mg/ml): 10^6 PFU/ml
virucidal efficacy (HSV-1 titer) (HSV-1 McKrae Strain [3]; Experiment 2 (Table 5), 48 h PI, 1 mg/ml): 0 PFU/ml
effective virucidal concentration IC50 (HSV-1 McKrae Strain [3]; Experiment 2 (Table 6)): 100 µg/mL
virucidal efficacy (HSV-1 titer) (HSV-1 McKrae Strain [3]; Experiment 3 (Table 8), 24 h PI, 0.001 mg/ml): 10^5 PFU/ml
virucidal efficacy (HSV-1 titer) (HSV-1 McKrae Strain [3]; Experiment 3 (Table 8), 24 h PI, 1 mg/ml): 0 PFU/ml
virucidal efficacy (HSV-1 titer) (HSV-1 McKrae Strain [3]; Experiment 3 (Table 8), 48 h PI, 1 mg/ml): 10^5 PFU/ml
virucidal efficacy (HSV-1 titer) (HSV-1 McKrae Strain [3]; Experiment 4 (Table 9), 24 h PI, Run 1, 5 mg/ml): 0 PFU/ml
virucidal efficacy (HSV-1 titer) (HSV-1 McKrae Strain [3]; Experiment 4 (Table 9), 24 h PI, Run 2, 0.01 mg/ml): 10^4 PFU/ml
virucidal efficacy (HSV-1 titer) (HSV-1 McKrae Strain [3]; Experiment 4 (Table 9), 24 h PI, Run 2, 0.1 mg/ml): 10^2 PFU/ml
virucidal efficacy (HSV-1 titer) (HSV-1 McKrae Strain [3]; Experiment 4 (Table 9), 24 h PI, Run 2, 1 mg/ml): 0 PFU/ml
virucidal efficacy (HSV-1 titer) (HSV-1 McKrae Strain [3]; Experiment 4 (Table 9), 24 h PI, Run 2, 5 mg/ml): 0 PFU/ml
effective virucidal concentration IC90 (HSV-1 McKrae Strain [3]; Experiment 4 (Table 11)): > 1000 µg/mL
virucidal efficacy (HSV-1 titer) (HSV-1 McKrae Strain [3]; Experiment 5 (Table 12), 24 h PI, Run 1, 0.0001 mg/ml): 10^5 PFU/ml
virucidal efficacy (HSV-1 titer) (HSV-1 McKrae Strain [3]; Experiment 5 (Table 12), 24 h PI, Run 1, 0.1 mg/ml): 10^2 PFU/ml
virucidal efficacy (HSV-1 titer) (HSV-1 McKrae Strain [3]; Experiment 5 (Table 12), 24 h PI, Run 1, 1 mg/ml): 0 PFU/ml
virucidal efficacy (HSV-1 titer) (HSV-1 McKrae Strain [3]; Experiment 5 (Table 12), 24 h PI, Run 1, 5 mg/ml): 0 PFU/ml
virucidal efficacy (HSV-1 titer) (HSV-1 McKrae Strain [3]; Experiment 5 (Table 12), 24 h PI, Run 2, 0.0001 mg/ml): 10^3 PFU/ml
virucidal efficacy (HSV-1 titer) (HSV-1 McKrae Strain [3]; Experiment 5 (Table 12), 24 h PI, Run 2, 0.001 mg/ml): 10^3 PFU/ml
virucidal efficacy (HSV-1 titer) (HSV-1 McKrae Strain [3]; Experiment 5 (Table 12), 24 h PI, Run 2, 0.01 mg/ml): 10^3 PFU/ml
virucidal efficacy (HSV-1 titer) (HSV-1 McKrae Strain [3]; Experiment 5 (Table 12), 24 h PI, Run 2, 0.1 mg/ml): 0 PFU/ml
virucidal efficacy (HSV-1 titer) (HSV-1 McKrae Strain [3]; Experiment 5 (Table 12), 24 h PI, Run 2, 1 mg/ml): 0 PFU/ml
virucidal efficacy (HSV-1 titer) (HSV-1 McKrae Strain [3]; Experiment 5 (Table 12), 24 h PI, Run 2, 5 mg/ml): 0 PFU/ml
effective virucidal concentration IC50 (HSV-1 McKrae Strain [3]; Experiment 5 (Table 14)): 100 to 1000 µg/mL
effective virucidal concentration IC90 (HSV-1 McKrae Strain [3]; Experiment 5 (Table 14)): > 1000 µg/mL
virucidal efficacy (HSV-1 titer) (HSV-1 McKrae Strain [3]; Experiment 6 (Table 16), 24 h PI, 0.5 mg/ml): 0 PFU/ml
virucidal efficacy (HSV-1 titer) (HSV-1 McKrae Strain [3]; Experiment 6 (Table 16), 24 h PI, 1 mg/ml): 0 PFU/ml
virucidal efficacy (HSV-1 titer) (HSV-1 McKrae Strain [3]; Experiment 6 (Table 16), 24 h PI, 2 mg/ml): 0 PFU/ml
virucidal efficacy (HSV-1 titer) (HSV-1 McKrae Strain [3]; Experiment 6 (Table 16), 24 h PI, 5 mg/ml): 0 PFU/ml
effective virucidal concentration IC50 (HSV-1 McKrae Strain [3]; Experiment 6 (Table 17)): 100 µg/mL
efficacy in virucidal assay (comment) (HSV-1 McKrae Strain [3]; Experiment 6 comment, reduction in toxicity resulted in it): reduction in efficacy
